The conditions of data set [1]: in-life phase, albino and pigmented rats, 10 mg/kg oral.
The conditions of data set [2]: human, in vivo.
The next data set deals with Caco-2 barrier model. The data set can be described thus: Permeability in Caco-2 barrier model. The settings on record: for Papp, B-A direction: compound alone. As for the experimental part:
(§1) Digoxin was used as marker to check for Pgp activity in the cultures. […] Samples were recovered from receptor compartments after 0, 15, 30, 45, 60, and 120 minutes, and further analyzed by liquid scintillation counting. Samples were also recovered a time 0 and 120 minutes from the donor compartments for mass balance evaluation. Each condition was performed in 3 replicated transwell filters in the presence of the Caco-2 barrier.
For orientation: Caco-2 monolayers are a common model of the intestinal barrier.

Data set [3] in a line: Permeability in Caco-2 barrier model. The settings on record: human, Caco-2, pH 7.4. How it is done:
as §1

The next data set has as its system urinary copper excretion. The settings on record: in vivo.
In the next data set the target is Pgp (Homo sapiens, UniProt P08183). The settings on record: Caco-2.

One may read the Papp A→B as how fast a substance crosses the layer from the apical side. Higher therefore signals fast passage.

Pgp, sequence (P08183 whole entry): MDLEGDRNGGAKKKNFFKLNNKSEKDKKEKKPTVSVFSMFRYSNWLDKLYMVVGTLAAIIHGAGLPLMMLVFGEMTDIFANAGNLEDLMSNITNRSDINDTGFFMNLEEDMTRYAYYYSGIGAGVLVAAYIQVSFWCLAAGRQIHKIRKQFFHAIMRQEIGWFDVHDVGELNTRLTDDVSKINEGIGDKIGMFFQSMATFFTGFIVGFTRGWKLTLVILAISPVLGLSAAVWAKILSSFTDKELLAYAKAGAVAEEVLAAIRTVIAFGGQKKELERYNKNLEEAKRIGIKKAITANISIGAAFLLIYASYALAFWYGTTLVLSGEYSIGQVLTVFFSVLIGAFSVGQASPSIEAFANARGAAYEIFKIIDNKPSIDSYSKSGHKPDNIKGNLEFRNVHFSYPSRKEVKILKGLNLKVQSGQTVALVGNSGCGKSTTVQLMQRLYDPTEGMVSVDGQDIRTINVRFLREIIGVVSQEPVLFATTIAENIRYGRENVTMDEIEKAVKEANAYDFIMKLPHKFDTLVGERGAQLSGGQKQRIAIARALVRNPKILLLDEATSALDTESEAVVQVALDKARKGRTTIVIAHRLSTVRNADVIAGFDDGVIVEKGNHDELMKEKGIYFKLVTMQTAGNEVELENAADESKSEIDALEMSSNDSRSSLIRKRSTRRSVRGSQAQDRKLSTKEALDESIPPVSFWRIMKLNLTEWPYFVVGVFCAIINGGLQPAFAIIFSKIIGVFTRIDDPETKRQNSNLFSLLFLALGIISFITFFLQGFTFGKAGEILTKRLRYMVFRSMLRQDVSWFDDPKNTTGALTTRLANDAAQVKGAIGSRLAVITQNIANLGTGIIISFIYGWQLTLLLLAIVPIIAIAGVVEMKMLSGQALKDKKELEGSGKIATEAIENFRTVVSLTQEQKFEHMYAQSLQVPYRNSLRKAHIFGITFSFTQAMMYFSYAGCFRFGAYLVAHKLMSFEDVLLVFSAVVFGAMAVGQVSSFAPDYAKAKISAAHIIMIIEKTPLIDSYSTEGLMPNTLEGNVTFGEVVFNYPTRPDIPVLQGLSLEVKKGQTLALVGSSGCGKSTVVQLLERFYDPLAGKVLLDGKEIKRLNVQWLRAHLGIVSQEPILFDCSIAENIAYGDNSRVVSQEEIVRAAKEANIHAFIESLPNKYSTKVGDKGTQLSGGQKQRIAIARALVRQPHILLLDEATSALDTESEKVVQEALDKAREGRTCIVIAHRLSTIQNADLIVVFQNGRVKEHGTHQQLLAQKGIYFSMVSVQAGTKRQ

As to `NCCNCCNCCN.O=C(O)CCC(=O)O.O=C(O)CCC(=O)O`, the “Animal observations attributable to administration” value in data set [1] is reported as “No animal observations”.

Take `CC(=O)NCCNCCNCCNC(C)=O` [DAT, N1,N10-diacetyltriethylenetetramine]: the “Median Tmax of DAT” value in data set [2] was in the range of 5.0 to 6.0 h. Besides, for the setting “human, in vivo”, the “θ-VP,D/F/frM/frD Apparent volume for DAT” value is given as 197 L.

Regarding `C[C@H]1O[C@@H](O[C@H]2[C@@H](O)C[C@H](O[C@H]3[C@@H](O)C[C@H](O[C@H]4CC[C@@]5(C)[C@H](CC[C@@H]6[C@@H]5C[C@@H](O)[C@]5(C)[C@@H](C7=CC(=O)OC7)CC[C@]65O)C4)O[C@@H]3C)O[C@@H]2C)C[C@H](O)[C@@H]1O` [Digoxin], in the data set with Caco-2 barrier model (B-A/A-B), the “Asymmetry Index” value is 8.06. In addition, the “Papp, B-A direction” value in the data set on Caco-2 barrier model is 6.08 ×10⁻⁶ cm/s. This molecule registered a Papp A→B at 1 h, 0.02 mM in data set [3] of 0.75 ×10⁻⁶ cm/s.

In the case of `CC(=O)NCCNCCNCCN` [MAT, N1-acetyltriethylenetetramine], under “human, in vivo”, the “θ-MTT Mean transit time for MAT formation” value is 0.381 h and the “θ-VP,M/F/frM Apparent volume for MAT” value came to 426 L.

Take `NCCNCCNCCN.O=C(O)CCC(=O)O.O=C(O)CCC(=O)O` [PX811019, triethylenetetramine disuccinate]: the “Difference in urinary excretion of copper due to formulation” value in the data set with urinary copper excretion was “no clear difference”. In the data set with urinary copper excretion (po), the “Level of cupriuresis versus dose” value was “approximately the same at 435 and 1305 mg PX811019 and increased at the highest dose of 2175 mg”. The “Papp, B-A direction” value in the data set on Caco-2 barrier model (disuccinate) is given as “No permeability was observed”. The “Predicted absorption in humans” value in the data set on Caco-2 barrier model (estimated from in vitro Papp value) is “approximately 70%”. Further, the Pgp substrate entry at Pgp was “would not be a Pgp substrate”. In data set [2] (po), the “MAT t½” value is on record as 15.8239 h. Also, where the note is “human, in vivo, po”, the “DAT t½ Predicted” value was 0.390 h.

For `NCCNCCNCCN` [TETA, Triethylenetetramine, reference compound], for the setting “human, in vivo”, the “Increase of VT,T/F for every 100 mg difference from the 750 mg dose” value is on record as 6.37%, the “Inter-occasion variability of F” value is 43.7 (17.3) [5.5] % and the “Inter-occasion variability of ka” value was 69.4 (57.6) [16.3] %. For the setting “in vivo”, the “Slope (SL) of copper excretion versus TETA concentration” value is on record as 41.8 (mg/L)^−1. In addition, the “θ-SL · ER0 Slope between TETA and Cu excretion rate” value (population mean) is listed as 24.3 (mg/L)^−1 · (μg/h).

For Lucifer yellow, in the data set with Caco-2 barrier model (Caco-2), the “Papp of barrier quality markers” value is recorded as “lower than 1×10^−6 cm/s”.

The record behind these values is patent publication US20250114312A1, “TREATMENT OF COPPER DISORDERS” (PhilERA New Zealand Ltd., priority 2021, published 2025).
